The text below walks through data of patent US20180333401A1, “METHODS OF TREATING LIVER DISEASE” (Gilead Sciences, Inc., priority 2017, published 2018).

Common to all, as to assay type: in vivo, human
For data set [1], the system named is hepatic proton density fat fraction (PDFF). As to the kind of experiment: Hepatic fat by MRI-PDFF, proof of concept study in subjects with NASH. Conditions: for MRI-PDFF, median relative (%) change from BL / ≥30% reduction in MRI-PDFF, % of subjects: W12, orally QD for 12 weeks; for PDFF compared with BL (in words): 12 weeks. The protocol:
(§1) 70 subjects with NASH diagnosed by a hepatic proton density fat fraction (PDFF) ≥10% and liver stiffness ≥2.88 kPa by MRE, or liver biopsy consistent with NASH and stage 2-3 fibrosis were enrolled. Successive cohorts received monotherapy with Formula (II) 18 mg, Formula (VII) 20 mg, or Formula (V) 30 mg (n=10/cohort), or combination therapy with Formula (II)+Formula (VII) (18/20 mg) or Formula (II)+Formula (V) (18/30 mg) (n=20/cohort) orally QD for 12 weeks. Centrally-read PDFF and MRE, and serum fibrosis markers were measured at baseline (BL), W4 and W12. Deuterated water was administered to measure fractional synthesis of lipids (de novo lipogenesis [DNL]) and fibrosis-related markers (data are pending).

Another data set concerns liver stiffness. As to the kind of experiment: Liver stiffness by MRE, proof of concept study in subjects with NASH. Particulars: W12, orally QD for 12 weeks. The protocol:
as §1

In another data set the test system is ALT, GGT. As to the kind of experiment: Liver biochemistry (ALT, GGT), proof of concept study in subjects with NASH. Conditions: for ALT, median relative (%) change from BL / GGT, median relative (%) change from BL: W12, orally QD for 12 weeks. The protocol:
as §1

In a further data set the test system is TIMP-1, PIII-NP. Description: Serum fibrosis markers (TIMP-1, PIII-NP), proof of concept study in subjects with NASH. Particulars: for PIII-NP, median relative (%) change from BL / TIMP-1, median relative (%) change from BL: serum, W12, orally QD for 12 weeks. As to the method: as §1
A short description of data set [2]: Safety (AEs), proof of concept study in subjects with NASH. Conditions: over 12 weeks, orally QD. The protocol: as §1

Marks after values point to notes of the source that are not given here.

In the case of `Cc1cc(F)c(C(=O)Nc2cccc(-c3nncn3C(C)C)n2)cc1-n1cnc(C2CC2)c1` [Formula (II)], in data set [1], the “MRI-PDFF, median relative (%) change from BL” value is on record as 7.1% and the “≥30% reduction in MRI-PDFF, % of subjects” value (“≥30% reduction in MRI-PDFF” for short) is on record as 10%. Also, in the data set with liver stiffness, the “MRE, median relative (%) change from BL” value is −8.6%. For the same compound, in the data set with ALT, GGT, the “ALT, median relative (%) change from BL” value is −1.2% and the “GGT, median relative (%) change from BL” value is reported as −4.4%. For the same compound, in the data set on TIMP-1, PIII-NP, the “PIII-NP, median relative (%) change from BL” value is given as −8.7% and the “TIMP-1, median relative (%) change from BL” value is 2.6%. Further, the “Grade 2 or higher AE, % of subjects” value in data set [2] is on record as 40%.
On to `O=C(O)c1ccnc(N2CC(O)(c3ccc(OCc4c(-c5c(Cl)cccc5Cl)noc4C4CC4)cc3Cl)C2)c1` [Formula (V)], for which, in data set [1], the “PDFF compared with BL (in words)” value is recorded as “reduced”; the “MRI-PDFF, median relative (%) change from BL” value is on record as −15.6* %; the “≥30% reduction in MRI-PDFF” value is 0%. Besides, the “MRE, median relative (%) change from BL” value in the data set with liver stiffness was −8.3%. For the same compound, in the data set with ALT, GGT (12 weeks), the “ALT compared with BL (in words)” value is given as “reduced” and the “GGT compared with BL (in words)” value was “reduced”. In addition, in the data set with ALT, GGT, the “ALT, median relative (%) change from BL” value is given as −29.7% and the “GGT, median relative (%) change from BL” value is recorded as −19.3* %. In addition, in the data set on TIMP-1, PIII-NP, the “PIII-NP, median relative (%) change from BL” value came to 8.8% and the “TIMP-1, median relative (%) change from BL” value is 6.6* %. Besides, in data set [2], the “Grade 2 or higher AE, % of subjects” value was found to be 40%.
As to `Cc1cc(F)c(C(=O)Nc2cccc(-c3nncn3[C@@H](C)CF)n2)cc1-n1cnc(C2CC2)c1` [Formula (VII)], in data set [1], the “PDFF compared with BL (in words)” value is listed as “significant improvements”; the “MRI-PDFF, median relative (%) change from BL” value is −42.7* %; the “≥30% reduction in MRI-PDFF” value stood at 70%. The “MRE, median relative (%) change from BL” value in the data set with liver stiffness is −8.9%. Further, in the data set with ALT, GGT (12 weeks), the “ALT compared with BL (in words)” value was “non-significant reductions”. Besides, in the data set with ALT, GGT, the “ALT, median relative (%) change from BL” value is −33.5% and the “GGT, median relative (%) change from BL” value is −1.6%. Further, in the data set on TIMP-1, PIII-NP (12 weeks), the “PIII-NP compared with BL (in words)” value is “non-significant reductions” and the “TIMP-1 compared with BL (in words)” value was “significant improvements”. In the data set on TIMP-1, PIII-NP, the “PIII-NP, median relative (%) change from BL” value is −11.9% and the “TIMP-1, median relative (%) change from BL” value is listed as −11.6* %. Moreover, in data set [2], the “Grade 2 or higher AE, % of subjects” value is 40%.
